Measured values published in patent US20150224164A1, “TREATMENT OF AUTISM SPECTRUM DISORDERS USING GLYCYL-L-2-METHYLPROLYL-L-GLUMATIC ACID” (Neuren Pharmaceuticals Limited, priority 2013, published 2015).
Where a SMILES comes first, the peptide text is derived from it.

Legend:
12-month old rats = assay: Morris water maze, spatial reference memory; format: in vivo, rat; conditions: 0.96 or 4.8 mg/day s.c. mini-osmotic pump, vs saline
Description: We used male Wistar rats 12, 8 or 4 months of age. The Morris water maze test was conducted using a black plastic pool filled to a depth of 25 cm with water colored black with a non-toxic dye. […] The platform remained in that position though the training. The experiment used extra-maze cues (i.e. objects in the room surrounding the pool) that the rats could use to navigate to the platform. Distinctive posters or paintings were hung on the walls. Furniture in the room was not moved during the testing period. The placement of the pool allowed the experimenter an easy access to it from all sides. The pool was emptied and refilled daily during testing, with water at 25° C.+/-2° C. Rats in each group were trained to swim to the submerged platform. The rats received six 60-second trials per day for four consecutive days. A trial began by placing the rat into the water facing the wall of the pool, at one of four start locations (north, south, east, west). The sequence of start locations was chosen pseudorandomly, so that the start location of any given trial was different from that of the previous trial, and no start location was used more than twice during daily training. […] The swim latency for each rat was recorded for each trial for each day of the acquisition and retention phases and changes between phases were examined using Analysis of Variance.

17 month old rats = assay: 8-arm radial maze, spatial working memory; format: in vivo, rat; conditions: for WCC8-12 score, improvement across days: 9-day washout
Excerpt: The apparatus consists of a central platform communicating with 8 identical arms, each with a food cup at the end of the arm Rats were partially food-deprived for at least 10 days prior to, and throughout the radial maze procedure. The maze was assembled and positioned so that the experimenter could clearly observe the rats' behavior from a predetermined location. The experimenter numbered the arms of the maze according to their orientation from one to eight in a clock-wise direction. On day one the doors were inserted into the arms and each rat was confined in the central platform with 20 food pellets for 5 minutes. […] The following day the rats were allowed five minutes to explore the whole maze. All arms were baited with two food pellets in the food cup located at the end of each arm, and one pellet at both the entrance and middle of each arm. This was repeated for at least five, but up to eight days for rats that explored fewer than eight arms in two consecutive sessions. […] At this point it was decided that one of the old rats that had made only one arm entry on eight of the nine days should be excluded from future testing in this procedure. Otherwise all rats were included regardless of the amount of exploring they performed in pre-training. […] 30 days before the test (five days after pre-training) the 17 Male Wistar month old rats were implanted (under halothane anesthesia) with sub-cutaneous mini-osmotic pumps (Alzet) to dispense drug continuously for 3 weeks. At the completion of the infusion the pumps were removed and the wounds re-sutured (9-day washout allowed). The treatment groups were: • 1. young controls (4 months old), n=6; • 2. saline n=10; • 3. G-2-MePE low dose (2.4 mg/kg/day) n=13 • 4. G-2-MePE high dose (12.4 mg/kg/day) n=5 Working memory testing commenced on the ninth day of washout. Rats received 10 daily training sessions over 12 days. […] The experimenter recorded the sequence of arm entries with pen and paper. […] The time taken to enter all eight arms, when this occurred, was recorded. […]

[1] = test system: hippocampal CA1 neurons of mecp2 null mutant mice; assay: Dendritic arborization and spine analysis, Golgi staining (Example 9); format: in vivo, mouse
Description: We assess the effects of G-2-MePE treatment on dendrites. Transgenic mecp2 knockout mice (n=15 to 20) were administered G-2-MePE intraperitoneally at a dose of 20 mg/kg once daily. Following sacrifice dendritic spine density, spine length and aborization were examined after Golgi staining after nine weeks, as per the Table 1 below:
Dendritic length was assessed by distance from the soma of representative hippocampal CA1 neurons from 9 week old male mecp2 null mutant mice treated with either saline (3 neurons analysed from 3 separate mice, n=9) or G-2-MePE (20 mg/kg i.p. 1/day, from week 4; 3 neurons analysed from 3 separate mice, n=9).

`C[C@@]1(C(=O)N[C@@H](CCC(=O)O)C(=O)O)CCCN1C(=O)CN` [Example G-2-MePE, Glycyl-L-2-methylprolyl-L-glutamic acid] (HELM PEPTIDE1{G.[C[C@@]1(C(=O)[*:2])CCCN1[*:1]].E}$$$$V2.0) was tested. Which “memory: time needed to reach the platform, retention phase” value (12-month old rats) did it give?
The value was “improved memory”.

And the “WCC8-12 score, improvement across days” value (17 month old rats; high dose 12.4 mg/kg/day s.c. pump 3 weeks)?
The value was “showed the greatest improvement across days”.

What about the “correct maze choices averaged across days” value (17 month old rats; higher dose vs vehicle, p<0.05) of the same compound?
Its value is “more correct entries”.

And the “WCC8-12 score, improvement across days” value (17 month old rats; low dose 2.4 mg/kg/day s.c. pump 3 weeks)?
Its value is “very little difference”.

What about the “dendritic length by distance from the soma” value ([1]; 20 mg/kg i.p. 1/day from week 4, vs saline) of the same compound?
Its value is “produced longer dendrites”.

And the “dendritic arborization and dendritic spine length” value ([1]; 20 mg/kg i.p. once daily, 9 week old mice)?
Its value is “improved dendritic arborization and increased dendritic spine length”.
